Results published in patent US12673945B2, “3-((8-((1H-pyrazol-4-yl)amino)imidazo[1,2-a]pyridin-3-yl)ethinyl)-n-phenylbenzamide derivative, method for preparing same, and pharmaceutical composition containing same as active ingredient for prevention or treatment of cancer” (DAEGU-GYEONGBUK MEDICAL INNOVATION FOUNDATION, priority 2020, dated 2026).

Tests used:
Assay type in all cases: cell-based
T315I-Bcr-Abl (Ba/F3) = assay: Ba/F3 cell proliferation inhibition; details: BaF3; 72 hours, Cell Counting Kit-8
Procedure: (§1) […] lymphocyte cells, Parental (Ba/F3) and T315I-Bcr-Abl (Ba/F3) were seeded in 96-well plates at the density of 1×10^4/90 μL/well. A culture solution containing 9 concentrations (0.015 to 100 μM) of each example compound serially diluted in 3 folds or DMSO (control) were added to the plate ([…]) to a final concentration of 0 to 10 μM. The plate was incubated in a 37° C. CO2 incubator for 72 hours.
(§2) After incubation for 72 hours, the plate treated with the compound was treated with Cell Counting Kit-8 (Dojindo Molecular Technologies, Inc) solution at the concentration of 10 μL/well, and then mixed well. Then, the plate was incubated in a CO2 incubator at 37° C. for 2 hours, and absorbance at 450 nm was measured with a microplate reader. Data were expressed as percentage compared to vehicle treated cells and GI50 values were calculated using GraphPad Prism 5.0 (GraphPad software Inc., San Diego) GraphPad Prism 5.0.

Parental (Ba/F3) = assay: Ba/F3 cell proliferation inhibition; details: BaF3; 72 hours, Cell Counting Kit-8
Procedure: as §1, §2

KOPM28 cells = assay: human CML cell proliferation inhibition; details: 72 hours, Cell Counting Kit-8
Procedure: (§3) In order to evaluate the therapeutic effect of the compound according to the present invention on chronic myelogenous leukemia (CML), the following experiment was performed, and the results are shown in Table 6 below. Inhibitory activity to Bcr-Abl kinase was evaluated through the experiment using TCCS and KOPM28 cells, and inhibitory activity to T315I-Bcr-Abl kinase was evaluated through the experiment using T315I-TCCS and T315I-KOPM28 cells.
(§4) Human chronic myelogenous leukemia (CML) cells used in the experiment were TCCS, T315I-TCCS, KOPM28 and T315I-KOPM28, and the four types of cells were provided by University of Yamanashi.
(§5) Four types of human CML cells were each seeded in 96-well plates at the density of 1×10^4/90 μL/well. A culture solution containing 9 concentrations (0.000256 to 100 μM) of each example compound serially diluted in 5 folds or DMSO (control) were added to the plate (10 μL/well) to a final concentration of 0 to 10 μM. The plate was incubated in a 37° C. CO2 incubator for 72 hours.
as §2, with “8.0” for “5.0”, “Diego).” for “Diego) GraphPad Prism 5.0.”

T315I-TCCS cells = assay: human CML cell proliferation inhibition; details: 72 hours, Cell Counting Kit-8
Procedure: as §3, §4, §5
as §2, with “8.0” for “5.0”, “Diego).” for “Diego) GraphPad Prism 5.0.”

TCCS cells = assay: human CML cell proliferation inhibition; details: 72 hours, Cell Counting Kit-8
Procedure: as §3, §4, §5
as §2, with “8.0” for “5.0”, “Diego).” for “Diego) GraphPad Prism 5.0.”

T315I-KOPM28 cells = assay: human CML cell proliferation inhibition; details: 72 hours, Cell Counting Kit-8
Procedure: as §3, §4, §5
as §2, with “8.0” for “5.0”, “Diego).” for “Diego) GraphPad Prism 5.0.”

GI50 (T315I-Bcr-Abl (Ba/F3))	Structure (SMILES)	GI50 (Parental (Ba/F3))	GI50 (KOPM28 cells)	GI50 (T315I-TCCS cells)	GI50 (TCCS cells)	GI50 (T315I-KOPM28 cells)
50 to 500 nM	Cc1cc(F)c(C(=O)Nc2cc(N3CCN(C)C(=O)C3)cc(C(C)(C)C#N)c2)cc1C#Cc1cnc2c(Nc3cnn(C)c3)cccn12 [Example 24, N-(3-(2-cyanopropan-2-yl)-5-(4-methyl-3-oxopiperazin-1-yl)phenyl)-2-fluoro-4-methyl-5-((8-((1-methyl-1H-pyrazol-4-yl)amino)imidazo[1,2-a]pyridin-3-yl)ethynyl)benzamide]	500 to 5000 nM	< 10 nM	100 nM	< 10 nM	100 nM
50 to 500 nM	Cc1cc(F)c(C(=O)Nc2cc(CN3CCN(C)C(=O)C3)cc(C(C)(C)C#N)c2)cc1C#Cc1cnc2c(Nc3cnn(C)c3)cccn12 [Example 35, N-(3-(2-cyanopropan-2-yl)-5-((4-methyl-3-oxopiperazin-1-yl)methyl)phenyl)-2-fluoro-4-methyl-5-((8-((1-methyl-1H-pyrazol-4-yl)amino)imidazo[1,2-a]pyridin-3-yl)ethynyl)benzamide]	500 to 5000 nM	< 10 nM	> 100 nM	< 10 nM	> 100 nM
50 to 500 nM	Cc1cc(F)c(C(=O)Nc2cc(CN3CCN(C)CC3)cc(C(C)(C)C#N)c2)cc1C#Cc1cnc2c(Nc3cn[nH]c3)cccn12 [Example 84, 5-((8-((1H-pyrazol-4-yl)amino)imidazo[1,2-a]pyridin-3-yl)ethynyl)-N-(3-(2-cyanopropan-2-yl)-5-((4-methylpiperazin-1-yl)methyl)phenyl)-2-fluoro-4-methylbenzamide]	500 to 5000 nM	< 10 nM	100 nM	< 10 nM	> 100 nM
50 to 500 nM	Cc1cc(F)c(C(=O)Nc2ccc(CN3CCOCC3)c(C(C)(C)C#N)c2)cc1C#Cc1cnc2c(Nc3cnn(C)c3)cccn12 [Example 40, N-(3-(2-cyanopropan-2-yl)-4-(morpholinomethyl)phenyl)-2-fluoro-4-methyl-5-((8-((1-methyl-1H-pyrazol-4-yl)amino)imidazo[1,2-a]pyridin-3-yl)ethynyl)benzamide]	> 5000 nM	< 10 nM	> 100 nM	< 10 nM	> 100 nM
50 to 500 nM	Cc1cc(F)c(C(=O)Nc2ccc(Cn3cncn3)c(C(F)(F)F)c2)cc1C#Cc1cnc2c(Nc3cn[nH]c3)cccn12 [Example 114, N-(4-((1H-1,2,4-triazol-1-yl)methyl)-3-(trifluoromethyl)phenyl)-5-((8-((1H-pyrazol-4-yl)amino)imidazo[1,2-a]pyridin-3-yl)ethynyl)-2-fluoro-4-methylbenzamide]	> 5000 nM	< 10 nM	> 100 nM	< 10 nM	> 100 nM
50 to 500 nM	Cc1cc(F)c(C(=O)Nc2cc(N3CCC(N4CCN(C)CC4)CC3)cc(C(C)(C)C#N)c2)cc1C#Cc1cnc2c(Nc3cnn(C)c3)cccn12 [Example 25, N-(3-(2-cyanopropan-2-yl)-5-(4-(4-methylpiperazin-1-yl)piperidin-1-yl)phenyl)-2-fluoro-4-methyl-5-((8-((1-methyl-1H-pyrazol-4-yl)amino)imidazo[1,2-a]pyridin-3-yl)ethynyl)benzamide]	500 to 5000 nM	< 10 nM	> 100 nM	< 10 nM	100 nM
50 to 500 nM	Cc1cc(F)c(C(=O)Nc2cc(N3CCN(C)CC3)cc(C(F)(F)F)c2)cc1C#Cc1cnc2c(Nc3cn[nH]c3)cccn12 [Example 99, 5-((8-((1H-pyrazol-4-yl)amino)imidazo[1,2-a]pyridin-3-yl)ethynyl)-2-fluoro-4-methyl-N-(3-(4-methylpiperazin-1-yl)-5-(trifluoromethyl)phenyl)benzamide]	500 to 5000 nM	< 10 nM	100 nM	< 10 nM	> 100 nM
50 to 500 nM	Cc1cn(-c2cc(NC(=O)c3ccc(C)c(C#Cc4cnc5c(Nc6cnn(C)c6)cccn45)c3F)cc(C(F)(F)F)c2)cn1 [Example 6, 2-fluoro-4-methyl-N-(3-(4-methyl-1H-imidazol-1-yl)-5-(trifluoromethyl)phenyl)-3-((8-((1-methyl-1H-pyrazol-4-yl)amino)imidazo[1,2-a]pyridin-3-yl)ethynyl)benzamide]	> 5000 nM	100 nM	100 nM	< 10 nM	> 100 nM
50 to 500 nM	Cc1cc(F)c(C(=O)Nc2cc(-c3cccnc3)cc(C(F)(F)F)c2)cc1C#Cc1cnc2c(Nc3cn[nH]c3)cccn12 [Example 98, 5-((8-((1H-pyrazol-4-yl)amino)imidazo[1,2-a]pyridin-3-yl)ethynyl)-2-fluoro-4-methyl-N-(3-(pyridin-3-yl)-5-(trifluoromethyl)phenyl)benzamide]	> 5000 nM	< 10 nM	100 nM	< 10 nM	> 100 nM
50 to 500 nM	Cc1cc(F)c(C(=O)Nc2cc(OCCN(C)C)cc(C(F)(F)F)c2)cc1C#Cc1cnc2c(Nc3cnn(C)c3)cccn12 [Example 50, N-(3-(2-(dimethylamino)ethoxy)-5-(trifluoromethyl)phenyl)-2-fluoro-4-methyl-5-((8-((1-methyl-1H-pyrazol-4-yl)amino)imidazo[1,2-a]pyridin-3-yl)ethynyl)benzamide]	> 5000 nM	< 10 nM	100 nM	< 10 nM	> 100 nM
50 to 500 nM	Cc1cc(F)c(C(=O)Nc2cc(CN3CCCN(C)CC3)cc(C(F)(F)F)c2)cc1C#Cc1cnc2c(Nc3cnn(C)c3)cccn12 [Example 67, 2-fluoro-4-methyl-N-(3-((4-methyl-1,4-diazepan-1-yl)methyl)-5-(trifluoromethyl)phenyl)-5-((8-((1-methyl-1H-pyrazol-4-yl)amino)imidazo[1,2-a]pyridin-3-yl)ethynyl)benzamide]	500 to 5000 nM	< 10 nM	100 nM	< 10 nM	100 nM
< 50 nM	Cc1cc(F)c(C(=O)Nc2cc(Cn3cncn3)cc(C(C)(C)C#N)c2)cc1C#Cc1cnc2c(Nc3cnn(C)c3)cccn12 [Example 38, N-(3-((1H-1,2,4-triazol-1-yl)methyl)-5-(2-cyanopropan-2-yl)phenyl)-2-fluoro-4-methyl-5-((8-((1-methyl-1H-pyrazol-4-yl)amino)imidazo[1,2-a]pyridin-3-yl)ethynyl)benzamide]	> 5000 nM	< 10 nM	< 10 nM	< 10 nM	100 nM
50 to 500 nM	Cc1cc(F)c(C(=O)Nc2ccc(Cn3ccnc3)c(C(C)(C)C#N)c2)cc1C#Cc1cnc2c(Nc3cnn(C)c3)cccn12 [Example 46, N-(4-((1H-imidazol-1-yl)methyl)-3-(2-cyanopropan-2-yl)phenyl)-2-fluoro-4-methyl-5-((8-((1-methyl-1H-pyrazol-4-yl)amino)imidazo[1,2-a]pyridin-3-yl)ethynyl)benzamide]	> 5000 nM	< 10 nM	> 100 nM	< 10 nM	> 100 nM
50 to 500 nM	Cc1cc(F)c(C(=O)Nc2cc(-c3ccncc3)cc(C(C)(C)C#N)c2)cc1C#Cc1cnc2c(Nc3cnn(C)c3)cccn12 [Example 17, N-(3-(2-cyanopropan-2-yl)-5-(pyridin-4-yl)phenyl)-2-fluoro-4-methyl-5-((8-((1-methyl-1H-pyrazol-4-yl)amino)imidazo[1,2-a]pyridin-3-yl)ethynyl)benzamide]	> 5000 nM	< 10 nM	100 nM	< 10 nM	100 nM
50 to 500 nM	Cc1cc(F)c(C(=O)Nc2cc(OCCCN(C)C)cc(C(F)(F)F)c2)cc1C#Cc1cnc2c(Nc3cnn(C)c3)cccn12 [Example 51, N-(3-(3-(dimethylamino)propoxy)-5-(trifluoromethyl)phenyl)-2-fluoro-4-methyl-5-((8-((1-methyl-1H-pyrazol-4-yl)amino)imidazo[1,2-a]pyridin-3-yl)ethynyl)benzamide]	> 5000 nM	< 10 nM	100 nM	100 nM	100 nM
